Source: paper PMC3275588, “Cellular Growth Kinetics Distinguish a Cyclophilin Inhibitor from an HSP90 Inhibitor as a Selective Inhibitor of Hepatitis C Virus” (PLoS ONE, 2012)
Where “and” joins values, the source holds several entries; their conditions need not be identical. Equal values may be shown once. Read-outs that look alike come from different tables or passages of the source.

How the values were obtained:
[1] = test system: Infectious HCV (2a) Min3 virus in non-dividing Lunet-CD81 cells; assay: Extracellular HCV titer in HCV-infected non-dividing cultures; format: cell-based, hepatitis C virus; settings: for reduction of infectious HCV titer: 10×EC50 (0.35 µM)
Protocol: (§1) Because 17-AAG slows cellular proliferation at concentrations similar to its effective concentration for inhibiting HCV replication, we next assessed whether it inhibited HCV replication in non-dividing cells. We first established a non-dividing monolayer of Lunet-CD81 cells and then infected that monolayer with cell-culture adapted virus capable of spreading and infecting all of the cells in a culture. […] When the fully-infected non-dividing cultures were treated with DMSO alone, the extracellular viral titer remained relatively constant at between 10^5 and 10^6 TCID50/ml over time (Fig. 6A). […] The reduction in HCV titer caused by 17-AAG, may at least in part, result from the modest toxicity observed in the non-dividing monolayers at the concentrations used.
HCV-infected non-dividing cultures were established by methods adapted from Sainz and Chisari. Briefly, Lunet-CD81 cells were seeded in 12-well plates at a density of 50,000 cells/well. The plates were incubated over-night at 37°C and subsequently DMSO was added to 1% final concentration. Cells were allowed to grow to confluence over three days. Infectious HCV (2a) with three adaptive mutations (the Min3 virus) (core K78E, NS2 W879R, and NS4B K1761N) was then added to each well at an MOI of five. […] 200 µl aliquots of the extracellular medium were saved daily, stored at −80°C, and subsequently used for infectious viral titering. After three days, the compound-medium was refreshed and time points were collected for seven days. Viral titers as a percentage of the DMSO-treated control were measured through diluting the extracellular medium 40-fold and using it to infect naïve Lunet-CD81 cells. After 72 hours of incubation, intracellular HCV replication was measured by following NS3-4A protease cleavage of a europium-labeled peptide.

HCVcc Min3 virus = assay: Antiviral potency in rapidly-dividing virus-infected cells (NS3-4A protease activity); format: cell-based, hepatitis C virus
Protocol: To assess the antiviral potency of compounds in rapidly-dividing virus-infected cells. we adapted a method from a previously described assay. Briefly, 1500 cells per well were plated in 384 well-plates. Infection with the HCVcc Min3 virus (core K78E, NS2 W879R, and NS4B K1761N) was followed by addition of compound as described. After three days, intracellular NS3-4A protease activity was assessed. Luciferase, Calcein, CellTiter-Glo, and NS3-4A levels were expressed as a percent of the no-drug control.
Supplementary file pone.0030286.s001.tif: Figure S1 CsA and 17-AAG maintain potency, similar to rapidly-dividing replicon cells, in rapidly-dividing virus-infected cells. The normalized amount of virus, as measured by enzymatic activity of the NS3-4A protease, was determined as a function of dose. […] (TIF) Click here for additional data file.

[2] = test system: adapted HCV (2a) in dividing cells; assay: Extracellular HCV titer in fully-infected dividing cultures; format: cell-based, hepatitis C virus
Protocol: As a comparative control, we performed the same compound-treatment using fully-infected cultures that were still dividing (see Materials and Methods). […] The inhibitory effect of 17-AAG was diminished only as the cell cultures reached confluence (days 3 and 4 post-compound addition) (Fig. 6B).
As a comparative control, fully-infected, growing cell cultures were prepared as well. Briefly, cells were plated at 25,000 cells/well on 12-well plates. After the cells adhered to the plate (four hours post-seeding), they were infected at an MOI of five using adapted HCV (2a) (see above). The HCV infection was permitted to spread until the cultures were fully infected (three days post-infection). Subsequently, compounds were added and extracellular medium was removed each day and analyzed as described above.

[3] = test system: non-dividing Lunet-CD81 monolayers; assay: Cell number in non-dividing monolayers
Protocol: as §1

[4] = test system: genotype 1a replicon cells; assay: Cell number by count of Hoechst-stained nuclei; format: cell-based; settings: three days; for number of cells per image / effect on number of cells per image: 1 µM compound
Protocol: (§2) For direct assessment of cell number, genotype 1a replicon cells were seeded in 384 well plates at 1500 cells/well. Compounds were added as previously described. Cells were fixed in 1% paraformaldehyde (Electron Microscopy Sciences) and 25 µg/ml Hoechst 33342 (Invitrogen) in PBS for 30 minutes at room temperature. The fixed cells were washed twice with PBS, and images of each well were acquired with the ImageXpress Micro (Molecular Devices, Sunnyvale, CA). Nuclei were quantified with the cell scoring application in MetaXpress (Molecular Devices, Sunnyvale, CA).

HCV replicon cells [5] = assay: Cellular growth by percent confluence (IncuCyte time-lapse microscopy); format: cell-based; settings: for effect on kinetics of cellular proliferation: 1 µM, % confluence every four hours; for minimum inhibitory concentration (MIC) for growth rate: lowest concentration with significant decrease in growth rate
From the text: To distinguish between these two mechanisms, we directly measured cellular confluence (the percent of the culture well occupied by cells, % confluence) every four hours and quantified cellular replication rates.
We next determined if 17-AAG slows cell growth at the same concentration at which it inhibits HCV replication. We quantified growth rate by assessing the change in % confluence between days 1 and 2 (% confluence/day) and measured the effect of growth rate as a function of dose.
(§3) To assess cellular growth, 96 well plates ImageLock plates (Essen Instruments, Ann Arbor, MI) were seeded at a density of 5×10^3 cells/well in culture medium without G418. Percent confluence was quantified using bright phase images (at 10× magnification) acquired of each well every four hours in an IncuCyte (Essen Instuments, Ann Arbor, MI). Alternatively, 7.5×10^4 cells/well were plated in 6 well plates. Each day post drug addition, cells were dislodged from the tissue culture plate using 350 µL trypsin-EDTA and then quenched with 150 µL fetal bovine serum. The number of cells that exclude trypan-blue was determined using the Vi-Cell (Beckman Coulter, Fullerton, CA) in triplicate.

[6] = test system: luciferase-encoding HCV replicon; assay: HCV replicon Renilla luciferase antiviral assay; format: cell-based, hepatitis C virus; settings: three days post drug addition
Protocol: (§4) Using a stable cell line replicating a luciferase-encoding HCV replicon, we measured viral replication levels (Renilla luciferase) across a range of drug concentrations (2 nM to 44.4 µM) three days post drug addition. In parallel, we measured intracellular esterase activity as a surrogate for cell viability using the Calcein AM reagent.
(§5) Renilla luciferase replicon cell assays were performed as previously described. Calcein AM (Anaspec, Fremont, CA) and CellTiter-Glo (Promega, Madison, WI) readouts were performed as instructed by the manufacturer.

HCV replicon cells [7] = assay: Calcein AM intracellular esterase activity (cell viability)
Protocol: as §4, §5

HCV replicon cells [8] = assay: Trypan-blue exclusion viable cell count; format: cell-based; settings: 1 µM, multiple timepoints post drug addition
Protocol: Cells treated were trypsinized and quantified at multiple timepoints post drug addition (Fig. 5C).
as §3

HCV replicon cells [9] = assay: CellTiter-Glo intracellular ATP (cell viability); settings: three day assay
Protocol: as §5

[10] = Cell number by count of Hoechst-stained nuclei; format: cell-based; settings: genotype 1a HCV replicon cells; Hoechst-stained nuclei, three days
Protocol: as §2

[11] = Calcein AM intracellular esterase activity (cell viability)
Protocol: as §4, §5

[12] = CellTiter-Glo intracellular ATP (cell viability)
Protocol: as §5

Structure (SMILES)	number of cells per image [4]	effect on kinetics of cellular proliferation (HCV replicon cells [5])	minimum inhibitory concentration (MIC) for growth rate (HCV replicon cells [5]) [µM]	effect on number of viable cells (HCV replicon cells [8])	effect on number of cells per image [4]	CC50 at 3 days [10] [nM]	EC50 ([6]; Hepatitis C virus, 72 h) [nM]	CC50 at 3 days [11] [nM]	CC50 at 3 days [12] [nM]	other results
COc1ccc2c(O[C@@H]3C[C@H]4C(=O)N[C@]5(C(=O)O)C[C@H]5/C=C\CCCCC[C@H](NC(=O)OC5CCCC5)C(=O)N4C3)cc(-c3csc(NC(C)C)n3)nc2c1 [BILN-2061]	–	–	–	–	–	–	–	–	–	suppression of infectious HCV titer ([1]; non-dividing cells, 10×EC50, sustained over 7-day time course): 2 log; EC50 (HCVcc Min3 virus; Hepatitis C virus, 72 h): 140 nM; effect on viral titers ([2]; dividing and non-dividing cells, 10×EC50): inhibited viral titers in both dividing and non-dividing cells; effect on number of cells ([3]; human, 10 ×EC50): neither CsA nor BILN 2061-treatment decreased the number of cells
C=CCNC1=C2C[C@@H](C)C[C@H](OC)[C@H](O)[C@@H](C)/C=C(\C)[C@H](OC(N)=O)[C@@H](OC)/C=C\C=C(/C)C(=O)NC(=CC1=O)C2=O [17-AAG, 17-(Allylamino)-17-demethoxygeldanamycin]	~22 % of the controls	slowed the kinetics of cellular proliferation significantly	0.022	reduced the number of viable cells equally effectively	–	–	–	–	–	antiviral effect on HCV titer ([1]; non-dividing cell-culture model of HCV replication): little antiviral effect; reduction of infectious HCV titer ([1]; non-dividing cells, Day 7): 0.3 log; reduction of infectious HCV titer ([1]; non-dividing cells, day 2): 0.6 log; CC50 ([4]; Hoechst-stained nuclei): 5 nM; EC50 (HCVcc Min3 virus; rapidly-dividing virus-infected cells, NS3-4A protease activity, three days, read-out: EC50): 35 nM; growth rate (HCV replicon cells [5]; 22 nM, change in % confluence between days 1 and 2): 18.0+/−1.1 % confluence/day; EC50 [6]: 12.1 nM and 12 nM; reduction of level of infectious HCV ([2]; dividing cells, 10×EC50, after 24 hours of treatment): roughly 2 logs; CC50 (HCV replicon cells [7]; read-out: CC50 Calcein, intracellular esterase activity, three day assay): 21000 nM; CC50 (HCV replicon cells [9]; read-out: CC50 Intracellular ATP, CellTiter-Glo): 38 nM; number of cells ([3]; non-dividing monolayers, 10×EC50): 74 % of the DMSO-treated control
COc1ccc(C[C@H](N)C(=O)N[C@H]2[C@@H](O)[C@H](n3cnc4c(N(C)C)ncnc43)O[C@@H]2CO)cc1 [Puromycin, puromycin]	–	rapid elimination of cells	0.205	reduced the number of viable cells equally effectively	eliminated all cells	52	290	1070	516	difference between CC50 (toxic concentration) and EC50 (antiviral concentration) (HCV replicon cells [7]; Calcein assay vs replicon assay): ≤ 4 fold
Nc1ccn([C@@H]2O[C@H](CO)[C@@H](O)C2(F)F)c(=O)n1 [Gemcitabine, gemcitabine]	~22 % of the controls	–	–	–	–	4	12	> 44400	6	–
CNC(=O)c1c(-c2ccc(F)cc2)oc2cc(N(CCO)S(C)(=O)=O)c(C3CC3)cc12 [HCV-796]	–	–	–	Neither CsA nor HCV-796 treatment affected cell viability	Neither 1 µM CsA (Fig. 4C) nor HCV-796 (Fig. 4A) altered the number of cells per image	> 44400	15	> 44400	> 44400	toxicity by cell number ([4]; dose response): non-toxic at all concentrations tested; effect on cell proliferation (growth rate as a function of dose) (HCV replicon cells [5]; any concentration tested): did not significantly impair cell proliferation at any concentration tested; cytotoxicity (intracellular esterase activity) (HCV replicon cells [7]; 2 nM to 44.4 µM, three days): without any observable cytotoxicity
COc1cc2c(c(OC)c1OC)-c1ccc(OC)c(=O)cc1[C@@H](NC(C)=O)CC2 [Colchicine, colchicine]	–	–	–	–	–	–	–	> 44400	16	intracellular ATP signal (HCV replicon cells [9]; maximal effect): < 7 % of the untreated controls
